Among the data in ChEMBL document CHEMBL3784999, “Investigation of 4-amino-5-alkynylpyrimidine-2(1H)-ones as anti-mycobacterial agents” (Bioorg Med Chem, 2016) are MIC50 and MIC90 values, retold here.

The experiment has as its system Mycobacterium tuberculosis. Description: Antimycobacterial activity against Mycobacterium bovis BCG assessed as inhibition of mycobacterial replication after 6 days by microplate Alamar blue assay. Format: functional. Particulars: variant bovis BCG, 144 h. Background: Resazurin is reduced to fluorescent resorufin, in cell work by metabolically active cells.

Converted amounts (≈) assume the structure as drawn.

Turning to `Nc1nc(=O)[nH]cc1C#Cc1ccccc1`, the MIC50 (in general, the lowest concentration that inhibits either 50% of growth or 50% of the strains tested, depending on the study) is 25 µg/mL (≈ 118 µM).

As for `CO[C@H]1/C=C/O[C@@]2(C)Oc3c(C)c(O)c4c(O)c(c(/C=N/N5CCN(C)CC5)c(O)c4c3C2=O)NC(=O)/C(C)=C\C=C\[C@H](C)[C@H](O)[C@@H](C)[C@@H](O)[C@@H](C)[C@H](OC(C)=O)[C@@H]1C` [RIFAMPIN], the MIC90 (in general, the lowest concentration that inhibits either 90% of growth or 90% of the strains tested, depending on the study) turned out to be 1 µg/mL (≈ 1.22 µM).

On to `CCCCCCCCC#Cc1c[nH]c(=O)nc1N`, for which the MIC50 amounted to 50 µg/mL (≈ 202 µM).

As for `CCCCCC#Cc1c[nH]c(=O)nc1N`, the MIC50 was 12.5 µg/mL (≈ 60.9 µM).
